Measured values taken from patent US9604973B2, “Anti-cancer polyketide compounds” (priority 2012, dated 2017).

Assays:
DNAJB1 = experiment: RT-PCR of spliced and unspliced mRNA (intron retention) in CLL cells; type: cell-based, human; conditions: 4 hours, FD-895, PLAD 10, 100 nM, bendamustine 33, 100 μM, F-Ara-A 3, 10, 33 μM
Procedure: (§1) FIG. 23: FD-895 and PLAD induced inhibition of splicing in CLL: RT-PCR for analysis of spliced and unspliced mRNAs. CLL cells treated with FD-895, PLAD (10, 100 nM), chemotherapeutic agent like bendamustine (33, 100 μM) and F-Ara-A (3, 10, 33 μM) for 4 hours. RT-PCR for DNAJB1 was performed with primers spanning two exons; products were analyzed on ethidium bromide-stained agarose gels (2%) to visualize the correct size of the unspliced mRNAs. […] The exon structure of DNAJB1 gene is indicated. G, human genomic DNA was used as a control; U, unspliced mRNA; S, spliced mRNA.
(§2) CLL cells were treated with 10 and 100 nM of FD-895 and PLAD, 33 and 100 μM of bendamustine and 3, 10, and 33 μM of F-Ara-A for 4 h. Normal B and CLL cells were treated with 100 nM of FD-895 and PLAD and 10 μM of F-Ara-A for 15 minutes, 30 minutes, 1, 2 and 4 h. Total RNA was extracted using mirVana™ miRNA isolation kit (Ambion Life Technology, USA). After DNase treatment, 200 ng total RNA was reverse-transcribed using a SuperScript™ III first-strand synthesis system (Invitrogen). PCR was performed on 10 ng of the obtained cDNA (or human genomic DNA as a control) in 25 μl of reaction mixture containing Plantinum® PCR SuperMix High-fidelity (Invitrogen Life Technology, USA), and 0.1 μM of each primer of the appropriate pair.
(§3) PCR conditions were 94° C. for 3 min; 35 cycles of 94° C. for 30 s, 60° C. for 30 s, and 72° C. for 1 min; followed by 72° C. for 5 min. PCR products were separated on a 2% agarose gel and stained with ethidium bromide.

GAPDH = experiment: RT-PCR of spliced and unspliced mRNA (intron retention) in CLL cells, housekeeping gene; type: cell-based, human; conditions: 4 hours, same concentrations
Procedure: as §1, §2, §3

CLL cells = experiment: Flow cytometry, % specific induced apoptosis (DiOC6/PI) in primary CLL cells; type: cell-based, human; conditions: Homo sapiens, CLL cell; CLL cells from patient with del (17p) and Tp53 mutation, 48 hours
Procedure: FIG. 20A-20C: FD-895 and PLAD induce apoptosis in CLL cells but not in normal lymphocytes with a TP53 independent activity: Primary leukemia B cells from CLL (FIG. 20A) patient with del (17p) and Tp53 mutation, (FIG. 20B) patient with wild type p53 and sensitive to F-Ara-A and (FIG. 20C) normal lymphocytes from healthy donor were incubated with FD-895, PLAD and F-Ara-A (0, 10, 100, 1000 10,000 nM) for 48 hours.
FIG. 21: FD-895 and PLAD induce apoptosis in CLL cells not ONLY independently of Tp53 but also independently of SF3B1 mutational status: Primary leukemia B cells from CLL patient with SF3B1 wild, SF3B1 mutation, 17p DEL and normal B and T lymphocytes from healthy donor were incubated with FD-895 and PLAD with 100 nM for 48 hours. After incubation, the samples were harvested and % SIA was measured by flow cytometry as described above. […] Each dots represents number of CLL patient sample and normal B or T cells.
Peripheral blood mononuclear cells (PBMC) from patients with CLL were obtained from the CLL Research Consortium (CRC) tissue bank. The blood samples were collected after obtaining a written informed consent from the patients under a protocol approved by the institutional review board of The University of California, San Diego. All patients met criteria for CLL.^1 CLL B cells and PBMCs were separated from heparinized venous blood of the B-CLL patients by density gradient centrifugation using Ficoll-Hypaque (GE healthcare) as described earlier.^2 The samples that were used had more than 95% positive cells for CD19 and CD5+, as assessed by flow cytometry. CLL B cells were maintained in RPMI 1640 medium supplemented with 10% FBS, 2 mM L-glutamine, and 100 U/mL of penicillin and 100 μg/mL of streptomycin at 37° C. in an atmosphere of 5% CO2.
Apoptotic and viable cells were discriminated via flow cytometry of cells stained with 3,3′ dihexyloxacarbocyanine iodide (DiOC6) (Molecular Probes, Eugene, Oreg., USA) and propidium iodine (Sigma, St Louis, Mo., USA), as described.^3 Using this method viable cells exclude PI and stain brightly positive for DiOC6.

HCT-116 cell line = experiment: MTT cell proliferation assay; type: cell-based; conditions: HCT-116 cell line; for IC50: MTT
From the text: Structure Activity Relationships (SAR) studies for 1SS, […], 1RS, and […]. It has been reported that ablation of C3, C6 and C7 substituents is detrimental to activity. […] (See FIG. 4). Additional activity was also observed when C17 was left in its natural R configuration.

SMILES: Cn1c(CCCC(=O)O)nc2cc(N(CCCl)CCCl)ccc21 [Bendamustine]
- intron retention/splicing inhibition of DNAJB1 (DNAJB1): did not show intron retention/splicing inhibition
- splicing inhibition of housekeeping gene GAPDH (GAPDH): Neither FD-895, PLAD nor chemotherapy agents showed splicing inhibition

SMILES: Nc1nc(F)nc2c1ncn2[C@@H]1O[C@H](COP(=O)(O)O)[C@@H](O)[C@@H]1O [F-Ara-A, Fludarabine phosphate]
- IC50 (CLL cells): > 10000 nM

SMILES: CC[C@H](OC)[C@@H](C)[C@H]1O[C@@H]1[C@H](O)[C@@H](C)/C=C/C=C(\C)[C@H]1OC(=O)C[C@H](O)CC[C@@](C)(O)[C@@H](OC(C)=O)/C=C/[C@@H]1C [Isomer 1RS]
- times more active than FD-895 (HCT-116 cell line): ~25 times
- IC50 (HCT-116 cell line): 0.8 ± 0.05 nM

SMILES: CC[C@H](OC)[C@@H](C)[C@H]1O[C@@H]1[C@@H](O)[C@H](C)/C=C/C=C(\C)[C@H]1OC(=O)C[C@H](O)CC[C@@](C)(O)[C@@H](OC(C)=O)/C=C/[C@@H]1C [Isomer 1SR]
- IC50 (HCT-116 cell line): 3.7 ± 0.2 nM

SMILES: CC[C@H](OC)[C@@H](C)[C@H]1O[C@@H]1[C@@H](O)[C@@H](C)/C=C/C=C(\C)[C@H]1OC(=O)C[C@H](O)CC[C@@](C)(O)[C@@H](OC(C)=O)/C=C/[C@@H]1C [Isomer 1SS]
- IC50 (HCT-116 cell line; Homo sapiens): 23 ± 1.2 nM
